US20100278932A1, “POLYMER MICELLES CONTAINING SN-38 FOR THE TREATMENT OF CANCER” (Intezyne Technologies, Incorporated, priority 2009, published 2010)
Where a name gives a salt, the structure may show the parent alone.

Experiments:
[1] = Pharmacokinetics in cannulated rats; assay type: in vivo; conditions: 5 mg/kg (SN-38 equivalent mass) fast IV bolus, SN-38 in plasma, IT-141 of Example 40
Method: Pharmacokinetic data was generated from cannulated rats. […] Each group consisted of three rats.
150 μL of the supernatant was transferred to a HPLC vial for analysis. […] 150 μL of extraction solution was then added and vortexed for an additional 10 minutes. […] 150 μL of the supernatant was transferred to a HPLC vial for analysis. […] The mobile phase was 70% buffer and 30% acetonitrile (buffer=10 mM sodium phosphate with 0.1% triethyl amine adjusted to pH 3.5) flowing at 0.8 mL/min with an 18 minute run time. A calibration curve was constructed from the area under the curve of each of the seven standards and the SN-38 of each of the unknown samples determined from the curve.

[2] = cited from earlier work

SMILES	AUC [1]	solubility in aqueous solutions [2]
CCc1c2c(nc3ccc(OC(=O)N4CCC(N5CCCCC5)CC4)cc13)-c1cc3c(c(=O)n1C2)COC(=O)[C@]3(O)CC [CPT-11, irinotecan hydrochloride]	0.26 hours*μg SN-38/mL	
CCc1c2c(nc3ccc(O)cc13)-c1cc3c(c(=O)n1C2)COC(=O)[C@]3(O)CC [SN-38, 7-ethyl-10-hydroxycamptothecin]		exceedingly insoluble
